Reference: patent US20180036289A1 (Gilead Sciences, Inc., priority 2016, published 2018)

How the values were obtained:
786-O = assay: Cell proliferation assay (ATPlite), drug with vs without cobicistat; type: cell-based; conditions: 786-O cell line; 120 hours incubation
Outline: (§1)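 Duplicate wells per concentration; nine 3.16-fold steps from 3.16×10^−5 M downward to 3.16×10^−9 M. Compound added on day 1 after seeding, then 120 h incubation and ATPlite luminescence. Four-parameter logistic fitting of %-growth versus untreated gave IC50.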

A-204 = assay: as above; type: cell-based; conditions: A-204 cell line; 120 hours incubation
Outline: as §1

A-427 = assay: as above; type: cell-based; conditions: A-427 cell line; 120 hours incubation
Outline: as §1

A-498 = assay: as above; type: cell-based; conditions: A-498 cell line; 120 hours incubation
Outline: as §1

A-549 = assay: as above; type: cell-based; conditions: A-549 cell line; 120 hours incubation
Outline: as §1

A-704 = assay: as above; type: cell-based; conditions: A-704 cell line; 120 hours incubation
Outline: as §1

A388 = assay: as above; type: cell-based; conditions: A388 cell line; 120 hours incubation
Outline: as §1

BT-549 = assay: as above; type: cell-based; conditions: BT-549 cell line; 120 hours incubation
Outline: as §1

BxPC-3 = assay: as above; type: cell-based; conditions: BxPC-3 cell line; 120 hours incubation
Outline: as §1

COLO 205 = assay: as above; type: cell-based; conditions: COLO 205 cell line; 120 hours incubation
Outline: as §1

DLD-1 = assay: as above; type: cell-based; conditions: DLD-1 cell line; 120 hours incubation
Outline: as §1

Daoy = assay: as above; type: cell-based; conditions: Daoy cell line; 120 hours incubation
Outline: as §1

DoTc2 4510 = assay: as above; type: cell-based; conditions: DoTc2 4510 cell line; 120 hours incubation
Outline: as §1

FaDu = assay: as above; type: cell-based; conditions: FaDu cell line; 120 hours incubation
Outline: as §1

Hs 578T = assay: as above; type: cell-based; conditions: Hs 578T cell line; 120 hours incubation
Outline: as §1

K-562 = assay: as above; type: cell-based; conditions: K-562 cell line; 120 hours incubation
Outline: as §1

MIA PaCa-2 = assay: as above; type: cell-based; conditions: MIA PaCa-2 cell line; 120 hours incubation
Outline: as §1

MOLT-4 = assay: as above; type: cell-based; conditions: MOLT-4 cell line; 120 hours incubation
Outline: as §1

MeWo = assay: as above; type: cell-based; conditions: MeWo cell line; 120 hours incubation
Outline: as §1

OVCAR-3 = assay: as above; type: cell-based; conditions: OVCAR-3 cell line; 120 hours incubation
Outline: as §1

PA-1 = assay: as above; type: cell-based; conditions: PA-1 cell line; 120 hours incubation
Outline: as §1

RPMI-7951 = assay: as above; type: cell-based; conditions: RPMI-7951 cell line; 120 hours incubation
Outline: as §1

SHP-77 = assay: as above; type: cell-based; conditions: SHP-77 cell line; 120 hours incubation
Outline: as §1

SK-N-AS = assay: as above; type: cell-based; conditions: SK-N-AS cell line; 120 hours incubation
Outline: as §1

SR = assay: as above; type: cell-based; conditions: SR cell line; 120 hours incubation
Outline: as §1

SUP-T1 = assay: as above; type: cell-based; conditions: SUP-T1 cell line; 120 hours incubation
Outline: as §1

SW948 = assay: as above; type: cell-based; conditions: SW948 cell line; 120 hours incubation
Outline: as §1

T98G = assay: as above; type: cell-based; conditions: T98G cell line; 120 hours incubation
Outline: as §1

U-2 OS = assay: as above; type: cell-based; conditions: U-2 OS cell line; 120 hours incubation
Outline: as §1

TT = TT cell line; 120 hours incubation

In the case of `CC[C@]1(O)C[C@H]2CN(CCc3c([nH]c4ccccc34)[C@@](C(=O)OC)(c3cc4c(cc3OC)N(C=O)[C@H]3[C@@](O)(C(=O)OC)[C@H](OC(C)=O)[C@]5(CC)C=CCN6CC[C@]43[C@@H]65)C2)C1` [vincristine], the “Fold change in IC50 (IC50 [Drug + Cobicistat]/IC50 [Drug])” value (from here on “Fold change in IC50”) (786-O) is reported as 2.5 fold, the “Fold change in IC50” value (A-204) is reported as 4.4 fold and the “Fold change in IC50” value (A-427) is reported as 1.9 fold. For the same compound, the “Fold change in IC50” value (A-498) was 3.2 fold, the “Fold change in IC50” value (A-549) was 1.9 fold and the “Fold change in IC50” value (A-704) was 2.0 fold. The “Fold change in IC50” value (A388) was 3.7 fold, the “Fold change in IC50” value (BT-549) was 2.9 fold and the “Fold change in IC50” value (BxPC-3) was 4.1 fold. The “Fold change in IC50” value (COLO 205) was 4.0 fold, the “Fold change in IC50” value (DLD-1) was 2.0 fold and the “Fold change in IC50” value (Daoy) was 4.6 fold. The “Fold change in IC50” value (DoTc2 4510) was 6.2 fold, the “Fold change in IC50” value (FaDu) was 2.8 fold and the “Fold change in IC50” value (Hs 578T) was 2.8 fold. The “Fold change in IC50” value (K-562) was 3.5 fold, the “Fold change in IC50” value (MIA PaCa-2) was 3.6 fold and the “Fold change in IC50” value (MOLT-4) was 2.1 fold. For the same compound, the “Fold change in IC50” value (MeWo) was 2.9 fold, the “Fold change in IC50” value (OVCAR-3) was 4.0 fold and the “Fold change in IC50” value (PA-1) was 4.2 fold. For the same compound, the “Fold change in IC50” value (RPMI-7951) was 4.6 fold, the “Fold change in IC50” value (SHP-77) was 2.6 fold and the “Fold change in IC50” value (SK-N-AS) was 4.7 fold. For the same compound, the “Fold change in IC50” value (SR) was 3.6 fold, the “Fold change in IC50” value (SUP-T1) was 3.6 fold and the “Fold change in IC50” value (SW948) was 3.5 fold. The “Fold change in IC50” value (T98G) was 4.1 fold, the “Fold change in IC50” value (U-2 OS) was 3.5 fold and the “Fold change in IC50” value (TT) was 4.8 fold.
